Source: patent publication US10342766B2, “6-shogaol derivatives and activities thereof” (North Carolina Agricultural and Technical State University, priority 2017, dated 2019)
Values joined by “and” are separate entries in the source; they are usually repeats but may differ in a detail not shown here. Equal entries are not always repeated.

Experiments:
[1] = system: human colon cancer cells HCT-116; assay: MTT growth inhibition, HCT-116; format: cell-based; conditions: 24 hours
Protocol: Cell viability was determined by an MTT colorimetric assay. Briefly, human colon cancer cells HCT-116 or HT-29, were plated in 96-well microtiter plates with 3000 cells/well and allowed to attach for 24 hours at 37° C. and 5% CO2. The test compounds (in DMSO) were added to cell culture medium to desired final concentrations (final DMSO concentrations for control and treatments were 0.1%). After the cells were cultured for 24 hours, the medium was aspirated and cells were treated with 200 μL fresh medium containing 2.41 mmol/L MTT. After incubation for 3 hours at 37° C., the medium containing MTT was aspirated, 100 μL of DMSO was added to solubilize the formazan precipitate, and the plates were shaken gently for an hour at room temperature. Absorbance values were derived from the plate reading at 550 nm on a Biotek (Winooski, Vt., United States of America) microtiter plate reader. The reading reflected the number of viable cells and was expressed as a percentage of viable cells in the control. CCD-18Co cells were grown in EMEM. Both HCT-116 and HT-29 cells were cultured in McCoy's 5A medium. All of the above media were supplemented with 10% fetal bovine serum, 1% penicillin/streptomycin, and 1% glutamine, and the cells were kept in a 37° C. incubator with 95% humidity and 5% CO2.

[2] = Formation of cysteine conjugates in mice (urine, LC/MS); format: in vivo, mouse; conditions: oral gavage 200 mg/kg, urine collected in 24 h
Protocol: LC/MS analysis was carried out with a Thermo-Finnigan Spectra System, which consisted of an Accela high speed MS pump, an Accela refrigerated autosampler, and an LCQ Fleet ion trap mass detector (Thermo Electron, San Jose, Calif., United States of America) incorporated with an electrospray ionization (ESI) interface. A Gemini-NX C18 column (150 mm×4.6 mm i.d., 5 μm; Phenomenex, Torrance, Calif., United States of America) was used for separation at a flow rate of 0.3 mL/min. The column was eluted with 100% A (5% aqueous methanol with 0.2% formic acid) for 1 min, followed by linear increases in B (95% aqueous methanol with 0.2% formic acid) to 55% from 1 to 4 min, to 85% from 4 to 25 min, then to 100% B from 25 to 30 min, and then with 100% B from 30 to 35 min. The column was then re-equilibrated with 100% A for 5 min. The LC eluent was introduced into the ESI interface. The positive ion polarity mode was set for the ESI source with the voltage on the ESI interface maintained at approximately 4.6 kV. Nitrogen gas was used as the sheath gas and auxiliary gas. […] The mass range was measured from 100 to 800 m/z. […]
Enzymatic deconjugation of mouse urine was performed as described previously with slight modifications. […] The resulting suspension was centrifuged at 17,000 g for 5 min, and 10 μL of supernatant was analyzed directly by LC/MS.

Nrf2 = Nrf2 reporter activity by Tg(gstp1:GFP) fluorescence in transgenic zebrafish embryos; format: in vivo; conditions: 5 μM, 24-hour treatment from 1 dpf to 2 dpf; olfactory epithelia; relative to vehicle (DMSO = 1.00)
Protocol: Zebrafish AB transgenic strains Tg(gstp1:GFP) were maintained in a Pentair Aquatic Ecosystem (Apopka, Fla., United States of America) fish housing unit with 14 h light/10 h dark cycle (see Tsujita, T., Li, L., Nakajima, H., Iwamoto, N., Nakajima-Takagi, Y., Ohashi, K., Kawakami, K., Kumagai, Y., Freeman, B. A., Yamamoto, M., and Kobayashi, M. (2011) “Nitro-fatty acids and cyclopentenone prostaglandins share strategies to activate the Keap1-Nrf2 system: a study using green fluorescent protein transgenic zebrafish.” Genes Cells 16, 46-57). The fish embryos were maintained at 28.5° C. in 0.3× Danieau's solution (19.3 mM NaCl, 0.23 mM KCl, 0.13 mM MgSO4, 0.2 mM Ca(NO3)2, 1.7 mM HEPES, pH 7.0) containing 30 μg/ml phenylthiourea (PTU) to inhibit pigmentation. Tg(gstp1:GFP) cross with AB wild-type strain fluorescence embryos were used for the experiment. Zebrafish embryos were washed, dechorionated and anaesthetized before observations, and fluorescence imaging for analysis.
Transgenic zebrafish embryos at 1 day-post-fertilization (dpf) were dechorionated and placed in Petri dishes containing different chemicals diluted in 0.3× Danieau's solution containing PTU. The chemical stock was dissolved in DMSO at 5 mM concentration.
An Olympus MVX10 Fluorescence Macroscope (Olympus, Center Valley, Pa., United States of America) equipped with a Hamamatsu C9300-221 high-speed digital CCD camera (Hamamatsu City, Japan) was used for fluorescence microscopy. Tg(gstp1:GFP) fluorescent embryos were anaesthetized in tricaine and imaged at 2 dpf. MetaMorph Basic software (Olympus, Center Valley, Pa., United States of America) was used for image acquisition and analysis.
Quantification of Nrf2 Reporter Activity by Tg(gstp1:
GFP) Fluoresence in Zebrafish Model. The fluorescence intensity of the olfactory neural epithelia was quantitated using MetaMorph Basic software. In brief, GFP expression in the olfactory regions of Tg(gstp1:GFP) embryos treated with various chemicals was measured after 24-hour treatment from 1 dpf to 2 dpf. The GFP induction was detectable by fluorescence signal at the area of the olfactory epithelia in the anterior of the head region, the intensity was measured using an area of a circle of 60 pixel diameter of the fluorescence olfactory epithelia subtracted by a background non-fluorescence area next to the zebrafish embryo. Both the left and right olfactory epithelia were measured to give an average fluorescence value. The values are an average of measurements from at least 10 embryos.

IC50 [1]: 34.1 µM
SMILES: CCCCCCCC(=O)/C=C/c1ccc(O)c(O)c1 [Compound 27]
Cysteine conjugates found in mouse urine [2]: conjugate 36 and its reduced form 36a, three additional conjugates 37, 37a, and 37b
Ratio/CTL, Tg(gstp1:GFP) fluorescence signal (Nrf2): 9.19 and 9.19 ± 0.12
